Values of other authors as cited in US20210369601A1, “Pharmaceutical Formulation” (Klaria Pharma Holding AB, priority 2018, published 2021).

Settings: aqueous solution

pH of acceptable stability: < 5.5
pH of optimal stability: 3-4
Structure (SMILES): CNCC(O)c1ccc(O)c(O)c1 (centres unmarked) [adrenaline]
